In the NIST ThermoML archive (doi:10.1021/acs.jced.7b00613):
± gives the expanded uncertainty stated by the source.

What was measured:
[1] = refractive index (Na D-line) (dimensionless); details: 293.15 K; 101.33 kPa; Liquid; Standard Abbe refractometry
[2] = Liquid; for mass density: 293.15 K, 101.33 kPa, Vibrating tube method; for vapor or sublimation pressure: 278.15 K, Closed cell (Static) method

SMILES | refractive index [1] | mass density [2] | vapor or sublimation pressure [2]
CC(C)CC(C)(C)C [2,2,4-trimethylpentane] | 1.391 ± 0.001 | 692 ± 1 kg/m3 | 
O=C=O [carbon dioxide] |  |  | 3962 ± 18 kPa
CC [ethane] |  |  | 2699 ± 14 kPa

More lines, now with the values ahead:

refractive index [1] | mass density [2] | vapor or sublimation pressure [2] | SMILES
1.375 ± 0.001 | 660 ± 1 kg/m3 |  | CCCCCC [hexane]
1.396 ± 0.001 | 703 ± 1 kg/m3 |  | CCCCCCCC [octane]
